# Experiments:
# [1] = Solubility of abiraterone decanoate in lipid-based vehicles at 25° C. (HPLC); format: physicochemical; details: for Solubility (mg/g) at 25° C.: Day 13 results; for Solb (mg/g) at 25° C.: average of day 2 and day 7
# Protocol: In this example, solubility of abiraterone decanoate in the following four vehicles were tested. Each vehicle has a distinctive base, namely, medium chain trigylceride (MCT)/polyoxylglyceride, long chain (LC) monodiglyceride, and two propylene glycol (PG) monoesters, caprylic and lauryl. • Vehicle 1: MCT/Polyoxylglyceride based: 20% Kolliphor RH40/14% Plurol Oleique CC 497/33% Labrafil 1944 CS/33% Labrafac Lipophile WL 1349 • Vehicle 2: PG Monoester based: 20% Kolliphor RH 40/14% Plurol Oleique CC 497/66% Lauroglycol 90 • Vehicle 3: PG Monoester based: 20% Kolliphor RH40/14% Plurol Oleique CC 497/66% Capmul PG-8 • Vehicle 4: LC Monodiglyceride based: 20% Kolliphor RH40/14% Plurol Oleique CC 497/66% Maisine CC
# Solubilities of abiraterone decanoate in different vehicles were tested following the procedure below: • Prepare 5 g of each vehicle by weight • In a 4-mL vial, weigh about 350 mg drug and then add 2 mL of vehicle • Sonicate and vortex all samples, then place on a rotator at 25° C. • At the end of the day check the samples to see if the drug completely dissolved. If so, use wax paper to transfer additional drug, record the additional amount added. • After 2-3 days, remove about 0.5 mL from each sample and filter using a microcentrifuge. […] Results were obtained for samples after 2 days and after 7 days.
# The vehicles being tested have the following compositions: • Vehicle 1 (see Example 2): 20% Kolliphor RH40/14% Plurol Oleique CC 497/33% Labrafil 1944 CS/33% Labrafac Lipophile WL 1349, used as a control. • Vehicle 5: 20% Kolliphor RH40/14% Plurol Oleique CC 497/33% Maisine CC/33% Labrafac Lipophile WL 1349* • Vehicle 6: 20% Kolliphor RH40/14% Plurol Oleique CC 497/16% Labrafil 1944 CS/30% Maisine CC/20% Labrafac Lipophile WL 1349 • Vehicle 7: 20% Kolliphor RH40/14% Plurol Oleique CC 497/16% Labrafil 1944 CS/30% Capmul PG-8/20% Labrafac Lipophile WL 1349 • Vehicle 8: 20% Kolliphor RH40/14% Plurol Oleique CC 497/16% Labrafil 1944 CS/30% Capmul PG-12/20% Labrafac Lipophile WL 1349 • Vehicle 9: 20% Kolliphor RH40/14% Plurol Oleique CC 497/16% Labrafil 1944 CS/30% Labrafil M 2130 CS/20% Labrafac Lipophile WL 1349
# The procedures for preparing samples and solubility testing are similar to those described in Example 2.
# [2] = Forms A, B, and C
smiles,measurement,setting,value
CCCCCCCCCC(=O)O[C@H]1CC[C@@]2(C)C(=CC[C@@H]3[C@@H]2CC[C@]2(C)C(c4cccnc4)=CC[C@@H]32)C1 [abiraterone decanoate],solubility in lipid based vehicles (in words),[1]; Examples 2 and 3,good solubilities
same,Solubility (mg/g) at 25° C.,[1]; Vehicle 1 (control),101.1 mg/g
same,Solb (mg/g) at 25° C.,[1]; Vehicle 1: 20% Kolliphor RH40/14% Plurol Oleique CC 497/33% Labrafil 1944 CS/33% Labrafac Lipophile WL 1349,88.5 mg/g
same,Solb (mg/g) at 25° C.,[1]; Vehicle 2: 20% Kolliphor RH 40/14% Plurol Oleique CC 497/66% Lauroglycol 90,143.9 mg/g
same,Solb (mg/g) at 25° C.,[1]; Vehicle 3: 20% Kolliphor RH40/14% Plurol Oleique CC 497/66% Capmul PG-8,149.2 mg/g
same,Solb (mg/g) at 25° C.,[1]; Vehicle 4: 20% Kolliphor RH40/14% Plurol Oleique CC 497/66% Maisine CC,110.2 mg/g
same,Solubility (mg/g) at 25° C.,[1]; Vehicle 5: 20% Kolliphor RH40/14% Plurol Oleique CC 497/33% Maisine CC/33% Labrafac Lipophile WL 1349,111.5 mg/g
same,Solubility (mg/g) at 25° C.,[1]; Vehicle 6: 20% Kolliphor RH40/14% Plurol Oleique CC 497/16% Labrafil 1944 CS/30% Maisine CC/20% Labrafac Lipophile WL 1349,114.3 mg/g
same,Solubility (mg/g) at 25° C.,[1]; Vehicle 7: 20% Kolliphor RH40/14% Plurol Oleique CC 497/16% Labrafil 1944 CS/30% Capmul PG-8/20% Labrafac Lipophile WL 1349,141.2 mg/g
same,Solubility (mg/g) at 25° C.,[1]; Vehicle 8: 20% Kolliphor RH40/14% Plurol Oleique CC 497/16% Labrafil 1944 CS/30% Capmul PG-12/20% Labrafac Lipophile WL 1349,132.9 mg/g
same,DVS Max H2O uptake (wt %),[2],N/A - non-hygroscopic

# Source: patent US20250025417A1, “ORAL ABIRATERONE FORMULATIONS” (PROPELLA THERAPEUTICS, INC., priority 2021, published 2025)
